# Reference: US10149887B2, “Peptides and peptidomimetics in combination with t cell activating and/or checkpoint inhibiting agents for cancer treatment” (CanBas Co., Ltd., priority 2015, dated 2018)
# Like-named read-outs stand apart in the source and are kept apart here. Square brackets hold non-standard residues; d marks the D form. Ends that are not written are not given here. Peptide text beside a SMILES is read from it. Phe(F5) = N[C@@H](Cc1c(F)c(F)c(F)c(F)c1F)C(=O)O; dPhe(F5) = N[C@H](Cc1c(F)c(F)c(F)c(F)c1F)C(=O)O; dBpa = N[C@H](Cc1ccc(C(=O)c2ccccc2)cc1)C(=O)O; Cha = N[C@@H](CC1CCCCC1)C(=O)O; dCha = N[C@H](CC1CCCCC1)C(=O)O; Aun = NCCCCCCCCCCC(=O)O
# What was measured:
# Jurkat cells [1] = test: Side effect of peptide used alone: Jurkat cell cycle disturbance (flow cytometry); type: cell-based
# Description: Cell-cycle analysis The cell cycle status of the cells treated with bleomycin or adriamcin were analyzed by flow cytometry as described by Kawabe (1997) Nature 385:454-458. In brief, two million cells were re-suspended and incubated in 200 μl Krishan's solution (0.1% Sodium citrate, 50 μg/ml PI, 20 μg/ml RNase A and 0.5% NP-40) for 1 hr at 4° C. and analyzed by a flow cytometry, FACScan™ (Beckton Dickinson, Mountain View, Calif.) with the program CELLQuest™ (Beckton Dickinson).
# (§1) The “Appearance of side effect when used alone” indicates the peptide/peptidomimetic dose that produced Jurkat cell cycle disturbance, i.e., the appearance of significant amounts of SubG1 cells (dead cells) or cells in which the DNA content of each varies more than usual. […] The “G2 abrogating dose” indicates the peptide/peptidomimetic dose with 40 μg/ml bleomycine that produced detectable G2 checkpoint abrogation activity following treatment for 24 hours. The “Appearance of side effect when used with colchicine” indicates the peptide/peptidomimetic dose with 5 μg/ml colchicine that produced Jurkat cell cycle disturbance following treatment for 24 hours.
# Jurkat cells [2] = test: M phase checkpoint abrogation / non specific toxicity, colchicine treated Jurkat cells; type: cell-based; settings: dose with 5 μg/ml colchicine that produced Jurkat cell cycle disturbance, 24 hours
# Description: Flow cytometry analysis of M phase checkpoint abrogation by the compounds was performed using human T cell leukemia Jurkat cell line treated with colchicine (5 μg/ml or 0.5 μg/ml) and various doses of peptide/peptidomimetics for 24 hr (FIG. 12). The DNA of the cells was stained and analyzed by flow cytometry as described above.
# as §1
# A comparison between G2 checkpoint abrogating activity and non specific toxicity (M checkpoint abrogation) by CB501 was performed. In brief, Jurkat cells were treated with 40 μg/ml bleomycin or 0.5 μg/ml colchicine for G2 checkpoint abrogating activity and non specific toxicity, respectively. The DNA amount in each of the treated cells was analyzed by flow cytometry, as previously described.
# Jurkat cells [3] = test: G2 checkpoint abrogation, flow cytometry of bleomycin treated Jurkat cells; type: cell-based, human; settings: Jurkat cells with bleomycin 40 μg/ml
# [4] = dose that produced Jurkat cell cycle disturbance, peptide alone
Molecule,Appearance of side effect when used alone (Jurkat cells [1]; [4]) [µM],Appearance of side effect when used with Colchicine (Jurkat cells [2]) [µM],Appearance of side effect when used alone (Jurkat cells [1]) [µM],also measured
"N=C(N)NCCC[C@H](NC(=O)CNC(=O)[C@@H](N)Cc1ccc(O)cc1)C(=O)N[C@@H](CCCCN)C(=O)N[C@@H](CCCCN)C(=O)N[C@@H](CCCNC(=N)N)C(=O)N[C@@H](CCCNC(=N)N)C(=O)N[C@@H](CCC(N)=O)C(=O)N[C@@H](CCCNC(=N)N)C(=O)N[C@@H](CCCNC(=N)N)C(=O)N[C@@H](CCCNC(=N)N)C(=O)N[C@@H](CC1CCCCC1)C(=O)N[C@@H](Cc1c(F)c(F)c(F)c(F)c1F)C(=O)N[C@@H](CCCNC(=N)N)C(=O)N[C@@H](CO)C(=O)N1CCC[C@H]1C(=O)N[C@@H](CO)C(=O)N[C@@H](Cc1ccc(O)cc1)C(=O)O [CBP420, (1-Tyr)(1-Gly)(1-Arg)(1-Lys)(1-Lys)(1-Arg)(1-Arg)(1-Gln)(1-Arg)(1-Arg)(1-Arg)(1-Cha)(1-Phe-2,3,4,5,6-F)(1-Arg)(1-Ser)(1-Pro)(1-Ser)(1-Tyr)]",>50,≥50,–,–
"N=C(N)NCCC[C@H](NC(=O)[C@H](CCCNC(=N)N)NC(=O)[C@@H](N)CCCNC(=N)N)C(=O)N[C@@H](CC1CCCCC1)C(=O)N[C@@H](Cc1c(F)c(F)c(F)c(F)c1F)C(=O)N[C@@H](CCCNC(=N)N)C(=O)N[C@@H](CO)C(=O)N1CCC[C@H]1C(=O)N[C@@H](CO)C(=O)N[C@@H](Cc1ccc(O)cc1)C(=O)N[C@@H](Cc1ccc(O)cc1)C(=O)O [CBP430, (1-Arg)(1-Arg)(1-Arg)(1-Cha)(1-Phe-2,3,4,5,6-F)(1-Arg)(1-Ser)(1-Pro)(1-Ser)(1-Tyr)(1-Tyr)] (H-RRR[Cha][Phe(F5)]RSPSYY-OH; N-terminus and C-terminus assumed)",–,–,>50,–
"N=C(N)NCCC[C@H](NC(=O)[C@H](CCCNC(=N)N)NC(=O)[C@H](CCCNC(=N)N)NC(=O)[C@H](CCC(N)=O)NC(=O)[C@H](CCCNC(=N)N)NC(=O)[C@@H](N)CCCNC(=N)N)C(=O)N[C@@H](CC1CCCCC1)C(=O)N[C@@H](Cc1c(F)c(F)c(F)c(F)c1F)C(=O)N[C@@H](CCCNC(=N)N)C(=O)N[C@@H](CO)C(=O)N1CCC[C@H]1C(=O)N[C@@H](CO)C(=O)N[C@@H](Cc1ccc(O)cc1)C(=O)N[C@@H](Cc1ccc(O)cc1)C(=O)O [CBP431, (1-Arg)(1-Arg)(1-Gln)(1-Arg)(1-Arg)(1-Arg)(1-Cha)(1-Phe-2,3,4,5,6-F)(1-Arg)(1-Ser)(1-Pro)(1-Ser)(1-Tyr)(1-Tyr)] (H-RRQRRR[Cha][Phe(F5)]RSPSYY-OH; N-terminus and C-terminus assumed)",–,–,>50,–
"N=C(N)NCCC[C@H](NC(=O)CNC(=O)[C@@H](N)Cc1ccc(O)cc1)C(=O)N[C@@H](CCCCN)C(=O)N[C@@H](CCCCN)C(=O)N[C@@H](CCCNC(=N)N)C(=O)N[C@@H](CCCNC(=N)N)C(=O)N[C@@H](CCC(N)=O)C(=O)N[C@@H](CCCNC(=N)N)C(=O)N[C@@H](CCCNC(=N)N)C(=O)N[C@@H](CCCNC(=N)N)C(=O)N[C@@H](CC1CCCCC1)C(=O)N[C@@H](Cc1c(F)c(F)c(F)c(F)c1F)C(=O)NCCCCCCCCCCC(=O)N[C@@H](Cc1ccc(O)cc1)C(=O)N[C@@H](Cc1ccc(O)cc1)C(=O)O [CBP440, (1-Tyr)(1-Gly)(1-Arg)(1-Lys)(1-Lys)(1-Arg)(1-Arg)(1-Gln)(1-Arg)(1-Arg)(1-Arg)(1-Cha)(1-Phe-2,3,4,5,6-F)(1-aminoundecanoic acid)(1-Tyr)(1-Tyr)]",>12.5,>3.125,–,–
"N=C(N)NCCC[C@@H](NC(=O)[C@@H](CCCCN)NC(=O)[C@@H](CCCCN)NC(=O)[C@@H](CCCNC(=N)N)NC(=O)[C@@H](CCCNC(=N)N)NC(=O)[C@@H](CCC(N)=O)NC(=O)[C@@H](CCCNC(=N)N)NC(=O)[C@@H](CCCNC(=N)N)NC(=O)[C@@H](CCCNC(=N)N)NC(=O)[C@@H](CC1CCCCC1)NC(=O)[C@@H](Cc1c(F)c(F)c(F)c(F)c1F)NC(=O)CCCCCCCCCCNC(=O)[C@H](Cc1ccc(O)cc1)NC(=O)[C@@H](N)Cc1ccc(O)cc1)C(=O)NCC(=O)N[C@H](Cc1ccc(O)cc1)C(=O)O [CBP460, (1-Tyr)(1-Tyr)(1-aminoundecanoic acid)(d-Phe-2,3,4,5,6-F)(d-Cha)(d-Arg)(d-Arg)(d-Arg)(d-Gln)(d-Arg)(d-Arg)(d-Lys)(d-Lys)(d-Arg)(1-Gly)(d-Tyr)] (H-YY[Aun][dPhe(F5)][dCha][dR][dR][dR][dQ][dR][dR][dK][dK][dR]G[dY]-OH; N-terminus and C-terminus assumed)",>3.125,>3.125,–,–
"N=C(N)NCCC[C@@H](NC(=O)[C@@H](CCCCN)NC(=O)[C@@H](CCCCN)NC(=O)[C@@H](CCCNC(=N)N)NC(=O)[C@@H](CCCNC(=N)N)NC(=O)[C@@H](CCC(N)=O)NC(=O)[C@@H](CCCNC(=N)N)NC(=O)[C@@H](CCCNC(=N)N)NC(=O)[C@@H](CCCNC(=N)N)NC(=O)[C@@H](CC1CCCCC1)NC(=O)[C@@H](Cc1c(F)c(F)c(F)c(F)c1F)NC(=O)CCCCCCCCCCNC(=O)[C@@H](N)Cc1ccc(O)cc1)C(=O)NCC(=O)N[C@H](Cc1ccc(O)cc1)C(=O)O [CBP461, (1-Tyr)(1-aminoundecanoic acid)(d-Phe-2,3,4,5,6-F)(d-Cha)(d-Arg)(d-Arg)(d-Arg)(d-Gln)(d-Arg)(d-Arg)(d-Lys)(d-Lys)(d-Arg)(1-Gly)(d-Tyr)] (H-Y[Aun][dPhe(F5)][dCha][dR][dR][dR][dQ][dR][dR][dK][dK][dR]G[dY]-OH; N-terminus and C-terminus assumed)",>6.25,>6.25,–,–
"N[C@@H](Cc1ccc(O)cc1)C(=O)NCCCCCCCCCCC(=O)N[C@H](Cc1c(F)c(F)c(F)c(F)c1F)C(=O)N[C@H](CC1CCCCC1)C(=O)O [CBP462, (1-Tyr)(1-aminoundecanoic acid)(d-Phe-2,3,4,5,6-F)(d-Cha)] (H-Y[Aun][dPhe(F5)][dCha]-OH; N-terminus and C-terminus assumed)",–,–,>50,–
"N=C(N)NCCC[C@@H](NC(=O)[C@@H](CCCCN)NC(=O)[C@@H](CCCCN)NC(=O)[C@@H](CCCNC(=N)N)NC(=O)[C@@H](CCCNC(=N)N)NC(=O)[C@@H](CCC(N)=O)NC(=O)[C@@H](CCCNC(=N)N)NC(=O)[C@@H](CCCNC(=N)N)NC(=O)[C@@H](CCCNC(=N)N)NC(=O)[C@@H](CC1CCCCC1)NC(=O)[C@@H](Cc1c(F)c(F)c(F)c(F)c1F)NC(=O)CCCCCCCCCCN)C(=O)NCC(=O)N[C@H](Cc1ccc(O)cc1)C(=O)O [CBP463, (1-aminoundecanoic acid)(d-Phe-2,3,4,5,6-F)(d-Cha)(d-Arg)(d-Arg)(d-Arg)(d-Gln)(d-Arg)(d-Arg)(d-Lys)(d-Lys)(d-Arg)(1-Gly)(d-Tyr)] (H-[Aun][dPhe(F5)][dCha][dR][dR][dR][dQ][dR][dR][dK][dK][dR]G[dY]-OH; N-terminus and C-terminus assumed)",>6.25,>6.25,–,–
"NCCCCCCCCCCC(=O)N[C@H](Cc1c(F)c(F)c(F)c(F)c1F)C(=O)N[C@H](CC1CCCCC1)C(=O)O [CBP464, (1-aminoundecanoic acid)(d-Phe-2,3,4,5,6-F)(d-Cha)] (H-[Aun]-[dPhe(F5)]-[dCha]-OH; N-terminus and C-terminus assumed)",–,–,>50,–
"N[C@H](Cc1c(F)c(F)c(F)c(F)c1F)C(=O)N[C@H](CC1CCCCC1)C(=O)O [CBP470, (d-Phe-2,3,4,5,6-F)(d-Cha)] (H-[dPhe(F5)]-[dCha]-OH; N-terminus and C-terminus assumed)",–,–,>50,–
"N=C(N)NCCC[C@@H](NC(=O)[C@@H](CCCNC(=N)N)NC(=O)[C@@H](CCC(N)=O)NC(=O)[C@@H](CCCNC(=N)N)NC(=O)[C@@H](CCCNC(=N)N)NC(=O)[C@@H](CCCNC(=N)N)NC(=O)[C@@H](CC1CCCCC1)NC(=O)[C@@H](Cc1c(F)c(F)c(F)c(F)c1F)NC(=O)[C@@H](CO)NC(=O)[C@@H](Cc1c[nH]c2ccccc12)NC(=O)[C@@H](CO)NC(=O)[C@@H](CO)NC(=O)[C@H](N)Cc1ccc(O)cc1)C(=O)O [CBP481, (d-Tyr)(d-Ser)(d-Ser)(d-Trp)(d-Ser)(d-Phe-2,3,4,5,6-F)(d-Cha)(d-Arg)(d-Arg)(d-Arg)(d-Gln)(d-Arg)(d-Arg)] (H-[dY][dS][dS][dW][dS][dPhe(F5)][dCha][dR][dR][dR][dQ][dR][dR]-OH; N-terminus and C-terminus assumed)",–,–,>50,–
"(d-Arg)(d-Arg)(d-Arg)(d-Arg)(d-Bpa)(d-Arg)(d-Trp)(d-Arg)(d-Phe-2,3,4,5,6-F)(d-Cha) ([dR][dR][dR][dR][dBpa][dR][dW][dR][dPhe(F5)][dCha]) [CBP702]",–,–,–,G2 checkpoint abrogating activity (in words) (Jurkat cells [3]): retain G2 checkpoint abrogating activity comparable to other peptides having significant G2 checkpoint abrogating activity
"(d-Arg)(d-Arg)(d-Arg)(d-Bpa)(d-Arg)(d-Arg)(d-Arg)(d-Phe-2,3,4,5,6-F)(d-Cha) ([dR][dR][dR][dBpa][dR][dR][dR][dPhe(F5)][dCha]) [CBP703]",–,–,–,G2 checkpoint abrogating activity (in words) (Jurkat cells [3]): retain G2 checkpoint abrogating activity comparable to other peptides having significant G2 checkpoint abrogating activity
